# Test system: caspase-9
# Assay: UNC5B-induced caspase-9 activity in HeLa UNC5B cells
# Format: cell-based, Human
# Settings: Dox; 18 hours
# Procedure: FIG. 5. UNC5B-mediated Mcl-1 degradation induces MOMP and caspase-9 activation. (A): UNC5B over-expression triggers Mitochondrial Outer Membrane Permeabilization (MOMP) in a COMMD2/CRL3 complex-dependent manner. Hela cells were transfected with scramble (siCTRL), COMMD2 (siCOMMD2-1) or RBX1 (siRBX1-1) siRNAs. 24 hours after transfection, cells were treated with Dox and after further 18 hours mitochondrial depolarization quantified by 5′,6,6′-tetrachloro-1,1′,3,3′-tetraethylbenzimi-dazolylcarbocyanine iodide (JC-1) dye staining, using NucleoCounter NC3000 (n=3, **** p<0.0001, ordinary two-way ANOVA with Tukey's multiple comparisons test). Values are given as means±SEM. (B,C,D): Apoptotic cell death induced by UNC5B over-expression requires caspase-9. HeLa UNC5B cells were transfected with scramble (siCTRL) or caspase-9 (siCASP9) siRNAs and 24 hours later treated with the indicated concentrations of Dox. Propidium iodide (PI)-positive cells were assessed in real-time up to 48 hours using Incucyte Zoom instrument (C) (n=[…], Kolmogorov-Smirnov test). DNA fragmentation was assessed by FACS analysis (D) and caspase-3 was measured using caspase-3 fluorometric kit (E), both 18 hours after treatment (n=[…], **** p<0.0001, ordinary two-way ANOVA with Šidák's multiple comparisons test). Values are given as means±SEM. […] HeLa UNC5B cells were treated with Dox and 18 hours later caspase-9 and -8 activities were assessed by fluorometric kit, using specific substrates (n=3, ^nsp>0.05, *p<0.05, Mann-Whitney test, one-tailed). […] 24 hours later, cells were treated with Dox and caspase-9 activity was measured by fluorometric kit (n=3, **** p<0.0001, ordinary two-way ANOVA with Tukey's multiple comparisons test). […] 18 hours after treatment, caspase-9 activity was assessed with the fluorometric kit (n=5, *p<0.05, ** p<0.01, *** p<0.001, **** p<0.0001, ordinary two-way ANOVA with Tukey's multiple comparisons test). […] Cells were then treated with Dox and Mcl-1 protein was evaluated by western blot. […]
compound,measurement,value
CC(C)C[C@H](NC(=O)[C@H](Cc1ccccc1)NC(=O)c1cnccn1)B(O)O [bortezomib],UNC5B-induced caspase-9 activation,sufficient to prevent UNC5B-induced caspase-9 activation
